The values below come from US20230416297A1, “ANDROGEN RECEPTOR MODULATORS” (TRUSTEES OF DARTMOUTH COLLEGE, priority 2020, published 2023).

Values joined by “and” are separate entries in the source; they are usually repeats but may differ in a detail not shown here. Equal values may be shown once.

Assay [1] deals with T1, androgen receptor (Homo sapiens, UniProt P10275).
T1 sequence (P10275 1-920): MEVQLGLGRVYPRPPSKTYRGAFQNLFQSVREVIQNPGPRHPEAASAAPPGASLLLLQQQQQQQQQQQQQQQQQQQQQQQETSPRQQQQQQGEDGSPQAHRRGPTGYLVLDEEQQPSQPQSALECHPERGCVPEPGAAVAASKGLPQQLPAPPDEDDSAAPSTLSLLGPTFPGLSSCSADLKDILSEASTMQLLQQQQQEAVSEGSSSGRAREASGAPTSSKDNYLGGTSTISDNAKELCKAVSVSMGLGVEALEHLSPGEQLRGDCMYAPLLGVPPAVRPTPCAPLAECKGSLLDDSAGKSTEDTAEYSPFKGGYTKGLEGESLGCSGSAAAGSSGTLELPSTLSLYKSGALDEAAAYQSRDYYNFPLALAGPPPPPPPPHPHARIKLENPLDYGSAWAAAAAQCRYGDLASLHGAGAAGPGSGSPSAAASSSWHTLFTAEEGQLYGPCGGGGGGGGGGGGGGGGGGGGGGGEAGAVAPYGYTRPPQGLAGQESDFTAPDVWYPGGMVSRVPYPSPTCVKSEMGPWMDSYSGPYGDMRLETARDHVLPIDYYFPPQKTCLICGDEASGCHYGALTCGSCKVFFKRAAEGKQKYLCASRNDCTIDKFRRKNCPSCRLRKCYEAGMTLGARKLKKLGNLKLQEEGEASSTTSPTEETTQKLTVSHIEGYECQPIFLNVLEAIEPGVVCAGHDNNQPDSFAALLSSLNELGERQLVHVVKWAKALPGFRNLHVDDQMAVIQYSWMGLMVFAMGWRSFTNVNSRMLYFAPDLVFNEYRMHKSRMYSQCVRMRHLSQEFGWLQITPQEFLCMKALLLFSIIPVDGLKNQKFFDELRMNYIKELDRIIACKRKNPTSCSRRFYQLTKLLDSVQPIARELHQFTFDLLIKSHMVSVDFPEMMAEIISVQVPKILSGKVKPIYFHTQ
Kind of assay: human AR antagonist assay (Indigo Biosciences). The assay is classed as cell-based. Details: purchased Indigo Biosciences. The text has this:
(§1) The activity of a compound can be determined using various known methods. For example, AR assays can be used. Such AR assays include binding assays using, for example, cells transfected with the human androgen receptor. Several cell based model systems that allow sensitive detection and monitoring of steroids or other compounds with AR bioactivity are known. Most cell based AR reporter models use transgenic gene constructs that include an androgen response element (ARE) that controls reporter gene (e.g., lucifersrase) expression. For example, a human AR Reporter Assay System is commercially available from Indigo Biosciecnes. The principle application of such an assay product is to quantify functional activities, either agonist or antagonist, that a compound may exert against the human androgen receptor. […] In addition, the anti-proliferative activity of a compound can be determined using various known methods, including in vitro and in vivo antiproliferative assays using cancer cell lines such as a prostate cancer cell line.
(§2) The activity of certain compounds were tested in a human AR agonist assay and a human AR antagonist assay (Indigo Biosciences).

Assay [2] deals with T1, androgen receptor. Nature of the assay: AR binding (Ki, Table A).
Description: as §1

Assay [3] addresses T1, androgen receptor. Nature of the assay: human AR agonist assay (Indigo Biosciences). The format is cell-based. Details: purchased Indigo Biosciences. The settings on record: for HillSlope: agonist mode, Table 1 / FIG. 1.
Description: as §1, §2

Setting [4] is: antagonist mode, Table 3 / FIG. 3.
Where [5] appears, read: antagonist mode, Table 2 / FIG. 2.

On to `CC(C)CCC[C@]12CC[C@@]3(C)C(=C1C[C@@H](O)C2)CCC1=CC(=O)CC[C@@H]13` [Compound 110], for which, on androgen receptor [1] (setting [4]), the HillSlope was 0.6338.
Turning to `C[C@@]12CC[C@]3(C)C(=C1C[C@@H](O)C2)CCC1=CC(=O)CC[C@H]13` [Compound 105], at androgen receptor [1] (Table A), the half-inhibitory concentration (IC50) stood at 1500 nM.
The compound `CC(C)CCC[C@]12CC[C@@]3(C)C(=C1C[C@@H](O)C2)CCC1=CC(=O)CC[C@@H]13` [Compound 108] gave a HillSlope at androgen receptor [1] (setting [4]) of 1.225.
Consider `C[C@@]12CC[C@]3(C)C(=C1C[C@H](O)C2)CCC1=CC(=O)CC[C@H]13` [Compound 104], for which the IC50 on androgen receptor [1] (Table A) came to 4300 nM.
Same read-out and setting: under `C[C@]12CC[C@@]3(C)C(=C1C[C@@H](O)C2)CCC1=C[C@@H](O)CC[C@@H]13` [Compound 107] stands 4800 nM.
For the compound `CC(C)(O)C(=O)Nc1ccc([N+](=O)[O-])c(C(F)(F)F)c1` [hydroxyflutamide, reference compound], the HillSlope on androgen receptor [1] was 1.305 and 1.653.
On androgen receptor [2], `C[C@]12CC[C@@]3(C)C(=C1C[C@@H](O)C2)CCC1=CC(=O)CC[C@@H]13` [Compound 102, (9R,10S,13R,16S)-16-hydroxy-9,13-dimethyl-1,2,6,7,9,10,11,12,13,15,16,17-dodecahydro-3H-cyclopenta[a]phenanthren-3-one] had a Ki of 919 nM. Also, at androgen receptor [3], the EC50 amounted to 23000 nM and the HillSlope amounted to 1.300. Further, the IC50 against androgen receptor [1] (Table A) amounted to 654 nM. At androgen receptor [1] (setting [5]), this compound registered a HillSlope of 1.728 and an IC50 of 654 nM.
In turn, `C[C@]12CC[C@@]3(C)C(=C1C[C@H](O)C2)CCC1=CC(=O)CC[C@@H]13` [Compound 103, (9R,10S,13R,16R)-16-hydroxy-9,13-dimethyl-1,2,6,7,9,10,11,12,13,15,16,17-dodecahydro-3H-cyclopenta[a]phenanthren-3-one] came in with a Ki on androgen receptor [2] of 3460 nM. Besides, the HillSlope entry at androgen receptor [3] is recorded as “≈1.247”; at androgen receptor [1] (setting [5]) it was 1.906. Further, the IC50 against androgen receptor [1] (Table A) and against androgen receptor [1] (setting [5]) was 1240 nM in each case.
At androgen receptor [2], `CC(=O)O[C@@H]1CC2=C3CCC4=CC(=O)CC[C@@H]4[C@@]3(C)CC[C@]2(C)C1` [Compound 101, (9R,10S,13R,16S)-9,13-dimethyl-3-oxo-2,3,6,7,9,10,11,12,13,15,16,17-dodecahydro-1H-cyclopenta[a]phenanthren-16-yl acetate] had an inhibition constant (Ki) of 7350 nM. The compound further had a 50% effective concentration (EC50) on androgen receptor [3] of 10000 nM. Also, the HillSlope at androgen receptor [3] came to 1.063; on androgen receptor [1] (setting [5]), 2.100. For the same compound, the IC50 against androgen receptor [1] (Table A) and against androgen receptor [1] (setting [5]) was 413 nM in each case.
